Reference: PMC5962679 (Frontiers in Cellular and Infection Microbiology, 2018)
Ends that are not written are not given here.

What was measured:
Assay in all cases: biochemical
Format in all cases: binding
Conditions in all cases: for inhibition at 250 µM: 24 h, read-out: Binding percentage
[1] = molecular target: T1, HLA-DRB1*0401 (Homo sapiens, UniProt P01903+P01911, A100K/A169T/F76Y/I96L/K127E/L162R/M171V/N62H/P40V/Q125Y/R42H/S133A/S149N/S66Y/V115G/V209L/W38E)
T1 construct: homozygous lymphoblastoid B-cell lines (International Histocompatibility Working Group); host or cells: human HLA-DRB1*0401 homozygous lymphoblastoid B-cell line

[2] = molecular target: HLA-DRB1*1101 (Homo sapiens, UniProt P01903+P01911, A100R/A169T/A87E/I96F/K41T/L162R/M171V/P40S/Q125H/Q178H/Q39Y/Q99D/R42S/S66Y/T262R/V115G/W38E)
Chain of HLA-DRB1*1101 (P01903 26-254 limits assumed, other chains not shown): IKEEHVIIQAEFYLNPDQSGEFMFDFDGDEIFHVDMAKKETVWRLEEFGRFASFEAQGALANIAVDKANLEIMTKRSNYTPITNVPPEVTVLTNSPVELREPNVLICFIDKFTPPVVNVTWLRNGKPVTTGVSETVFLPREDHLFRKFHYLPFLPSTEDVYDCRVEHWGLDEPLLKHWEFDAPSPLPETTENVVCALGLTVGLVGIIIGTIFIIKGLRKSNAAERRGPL

[3] = molecular target: HLA-DRB1*1302 (Homo sapiens, UniProt P01903+P01911, A100E/A169T/K41T/L162R/M171V/P40S/Q125H/Q178H/Q39Y/Q99D/R42S/S66N/T262R/V115G/W38E/Y61H)
Chain of HLA-DRB1*1302 (P01903 26-254 limits assumed, other chains not shown): as above

[4] = molecular target: HLA-DRB1*0701 (Homo sapiens, UniProt P01903+P01911, A100R/A102G/A103Q/D57E/D86V/E43K/F76Y/K127E/L162R/M171V/P40G/Q125H/Q99D/R33Q/R42Y/R54Q/S133A/S66F/T210M/V115G/Y107V/Y59L/Y89S)

Sequence | IC50 [1] [µM] | inhibition at 250 µM [1] [%] | IC50 [2] [µM] | inhibition at 250 µM [2] [%] | IC50 [3] [µM] | inhibition at 250 µM [3] [%] | inhibition at 250 µM [4] [%] | IC50 [4] [µM]
LFYVNLFIMSSLSRK [compound 39152] | 2.8 | 65.8 | 1.9 | 91.8 | 8 | 94.7 | 11 | –
LKFIVRGNNLKFLNN [compound 39154] | – | 22.2 | – | 24.9 | 6.5 | 90.1 | 43.7 | –
MKLLQHIPANLLENI [compound 39153] | 57 | 61.2 | 52.1 | 72.7 | 10.7 | 91.9 | 85.4 | 7.5
RGPVNYHFSNYMNLD [compound 39047] | 54.5 | 59.8 | – | 0 | – | 37.8 | 90.4 | 6
